Test [1] deals with T1, BACE (Homo sapiens, UniProt P56817). Nature of the test: Competitive binding assay, displacement of labeled EBP from BACE, fluorescence anisotropy. Particulars: displacement of Molecule X, read-out: binding constant (Kd) of unlabeled peptide by competition. The arrangement: The cDNA for the catalytic domain of human BACE (residues 1-460) was PCR-amplified; human IgG1 heavy chain (C, cleaved yes); thrombin cleavage site (C); made in house; host or cells: CHO DG44 cells (stably transfected, secreted). How it is done: The competitive binding assay was carried out at pH 7.1 (PBS buffer) or pH 4.5 (50 mM acetate buffer). The fluorescence anisotropy was measured at 25° C. in an AVIV fluorometer. The excitation and emission wavelengths were set to 495 and 519 nm, respectively. The excitation and emission slit widths were 4 and 10 nm, respectively.
The initial anisotropy value was measured. A concentrated unlabeled peptide or compound stock was titrated into the above solution of EBP and BACE. The final concentration of unlabeled peptide or compound ranges from 20 to 20000 nM. After each addition, the solution was mixed for 10 times with a pipettor. The fluorescence anisotropy was averaged over a 5 minute period.
The change in anisotropy was converted to fractional occupancy based on the r0 and rb obtained from the binding assay. The fractional occupancy was then plotted against the concentration of the competing peptide or compound. (see, for example, FIG. 6) The Kd of the competing ligand was calculated from curve fitting using the program […]™ (Synergy Software, Reading, Pa.). The equation used to fit the competition data is identical to equation 4 in Lai et al., (2000) Arch. Biochem. Biophys. 381:278-284.
The truncated unlabeled peptides were screened at a single concentration of 10 μM at pH 4.5. The anisotropy values detected with Molecule X in the absence of inhibitor, i.e., truncated unlabeled peptide (ra) and in the presence of the inhibitor (rb) and the labeled peptide alone (r0) were used to calculate the percent of inhibition: 100 (ra-rb)/(ra-r0). The percent of inhibition was compared among the truncated peptides.

For test [2], the target named is T1, BACE. Nature of the test: Phage ELISA of phage-displayed peptides on immobilised BACE. On the set-up: The cDNA for the catalytic domain of human BACE (residues 1-460) was PCR-amplified; human IgG1 heavy chain (C, cleaved yes); thrombin cleavage site (C); made in house; host or cells: CHO DG44 cells (stably transfected, secreted). Particulars: clones from solid phase panning at pH 7.0. Type of test: binding. How it is done: Two highly selected and homologous 12 mer phage peptides bound BACE specifically and reproducibly in phage-ELISA tests. Bristol-Myers Squibb fUSE5-based C4C, C6C, 5- and 15 mer libraries, and M13-based C7C libraries, and 7- and 12 mer libraries obtained from New England Biolabs, Beverly, Mass. were panned for three cycles against BACE (produced as described herein in Example 3). BACE was immobilized by coating at 0.5 μg/well in 4 wells of Dynex Immulon 4HBX plates overnight at 4° C. in 0.1M NaHCO3 buffer, pH 9.0. Panning was by standard procedures at room temperature that involved blocking wells with 2% BSA in PBS and elution with 0.1M HCL, pH 2.2. The vector NTI alignment tool and visual inspection of sequences were employed to analyze the selected peptides.
After sequencing approximately 20-50 clones from each library after three cycles of selection, we prepared essentially all possible candidate clones (39 clones in total) for phage-ELISA to obtain direct evidence for affinity to BACE. […] We therefore sequenced additional 12 mer clones to try to find additional candidate clones. […] This […] (SEQ ID NO:20) peptide is homologous to […] (SEQ ID NO:19) and consistent with the specific binding of both those peptides to BACE. The […] (SEQ ID NO:20) peptide and […] (SEQ ID NO:19) peptides were the two most efficiently recovered clones with 13 and 9 copies, respectively. […]

Where two headings read alike, the source gives them in different places.

T1 sequence (P56817 46-460 limits assumed): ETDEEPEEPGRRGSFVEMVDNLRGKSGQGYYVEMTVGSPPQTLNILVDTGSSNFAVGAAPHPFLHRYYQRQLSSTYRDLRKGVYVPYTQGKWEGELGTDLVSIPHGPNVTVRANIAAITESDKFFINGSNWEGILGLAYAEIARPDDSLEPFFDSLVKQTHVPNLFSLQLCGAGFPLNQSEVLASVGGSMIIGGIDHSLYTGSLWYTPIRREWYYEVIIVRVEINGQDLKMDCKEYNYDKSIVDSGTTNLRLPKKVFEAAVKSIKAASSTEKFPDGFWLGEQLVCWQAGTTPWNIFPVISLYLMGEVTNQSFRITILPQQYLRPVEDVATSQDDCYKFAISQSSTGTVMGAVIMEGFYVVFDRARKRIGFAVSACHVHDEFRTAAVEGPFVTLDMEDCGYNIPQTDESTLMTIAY

Consider Ac-NLTTYPYFIPLP-OH [BMS-561871], for which the Kd in test [1] (pH 4.5) was found to be 1.07 µM; in test [1] (pH 7.1), 0.084 µM. Also, the “phage ELISA binding to BACE” value in test [2] is given as “specifically bind to BACE”.

The values are drawn from US7314726B2, “Beta secretase exosite binding peptides and methods for identifying beta secretase modulators” (Bristol-Myers Squibb Company, priority 2002, dated 2008).
